Converted amounts (≈) assume the structure as drawn.
Key:
Aspergillus terreus = experiment: Antifungal activity against Aspergillus terreus ATCC 46941 after 24 hrs by two fold serial dilution method; format: functional; conditions: ATCC 46941, 24 h
Pichia kudriavzevii = experiment: Antifungal activity against Candida krusei ATCC 6258 after 24 hrs by two fold serial dilution method; format: functional; conditions: ATCC 6258, 24 h
Aspergillus fumigatus = experiment: Antifungal activity against Aspergillus fumigatus ATCC 16424 after 24 hrs by two fold serial dilution method; format: functional; conditions: ATCC 16424, 24 h
Clavispora lusitaniae = experiment: Antifungal activity against Candida lusitaniae ATCC 42720 after 24 hrs by two fold serial dilution method; format: functional; conditions: ATCC 42720, 24 h
Cryptococcus neoformans = experiment: Antifungal activity against Cryptococcus neoformans ATCC 36556 after 24 hrs by two fold serial dilution method; format: functional; conditions: ATCC 36556, 24 h
Candida albicans = experiment: Antifungal activity against Candida albicans ATCC 10231 after 24 hrs by two fold serial dilution method; format: functional; conditions: ATCC 10231, 24 h
Candida tropicalis = experiment: Antifungal activity against Candida tropicalis ATCC 13803 after 24 hrs by two fold serial dilution method; format: functional; conditions: ATCC 13803, 24 h
Mus musculus [1] = experiment: Toxicity ICR mouse assessed as mortality at 33 to 900 mg/kg, po after 7 days; format: organism-based; parameters: dose 33-900 mg/kg, route oral; conditions: in vivo, 168 h
Mus musculus [2] = experiment: Toxicity ICR mouse assessed as effect on body weight at 33 to 900 mg/kg, po after 7 days; format: organism-based; parameters: dose 33-900 mg/kg, route oral; conditions: in vivo, 168 h
[3] = Toxicity in po dosed ICR mouse after 7 days; format: organism-based; conditions: in vivo
Mus musculus [4] = experiment: Toxicity ICR mouse assessed as effect on internal organ morphology at 33 to 900 mg/kg, po after 7 days by microscopy; format: organism-based; parameters: dose 33-900 mg/kg, route oral; conditions: in vivo, 168 h
Mus musculus [5] = experiment: Toxicity ICR mouse assessed as appearance of clinical signs at 33 to 900 mg/kg, po after 7 days; format: organism-based; parameters: dose 33-900 mg/kg, route oral; conditions: in vivo, 168 h

Structure (SMILES)	MIC (Aspergillus terreus) [µg/mL]	MIC (Pichia kudriavzevii) [µg/mL]	MIC (Aspergillus fumigatus) [µg/mL]	MIC (Clavispora lusitaniae) [µg/mL]	MIC (Cryptococcus neoformans) [µg/mL]	MIC (Candida albicans) [µg/mL]	MIC (Candida tropicalis) [µg/mL]	Activity (Mus musculus [1])	Activity (Mus musculus [2])	LD50 at 168 h [3] [mg/kg]	Activity (Mus musculus [4])	Activity (Mus musculus [5])
COc1ccc2c(Cc3ccc(C(C)C)cc3)c3[n+](cc2c1OC)CCc1cc2c(cc1-3)OCO2	32	4	64	1	4	4	1					
COc1ccc2c(Cc3ccc(C(C)C)cc3)c3[n+](cc2c1OCc1ccccc1)CCc1cc2c(cc1-3)OCO2.[Cl-]	32	4	64	4	4	4	4					
COc1ccc2c(Cc3ccc(C(C)C)cc3)c3[n+](cc2c1OCc1ccc(C(C)C)cc1)CCc1cc2c(cc1-3)OCO2.[Cl-]	8	2	4	1	2	1	1					
COc1ccc2c(Cc3ccc(C(C)C)cc3)c3[n+](cc2c1OCc1ccc(C(C)(C)C)cc1)CCc1cc2c(cc1-3)OCO2.[Cl-]	8	4	4	1	2	1	1					
COc1ccc2c(Cc3ccc(C(C)C)cc3)c3[n+](cc2c1OCc1ccc(C(F)(F)F)cc1)CCc1cc2c(cc1-3)OCO2.[Cl-]	16	4	16	2	4	2	2					
COc1ccc2c(Cc3ccc(C(C)C)cc3)c3[n+](cc2c1OCc1ccc(OC(F)(F)F)cc1)CCc1cc2c(cc1-3)OCO2.[Cl-]	16	4	32	2	4	2	2					
COc1ccc2c(Cc3ccc(C(C)C)cc3)c3[n+](cc2c1OCc1cc(F)c(F)c(F)c1)CCc1cc2c(cc1-3)OCO2.[Cl-]	32	4	32	4	4	4	4					
C/C=C/COc1c(OC)ccc2c(Cc3ccc(C(C)C)cc3)c3[n+](cc12)CCc1cc2c(cc1-3)OCO2.[Cl-]	4	1	2	0.5	1	0.5	0.5					
COc1ccc2c(Cc3ccc(C(C)C)cc3)c3[n+](cc2c1OC(C)(C)C)CCc1cc2c(cc1-3)OCO2.[Cl-]	32	4	32	1	4	4	1					
COc1ccc2c(Cc3ccc(C(C)C)cc3)c3n(cc-2c1=O)CCc1cc2c(cc1-3)OCO2	> 128	16 (≈ 35.3 µM)	> 128	16 (≈ 35.3 µM)	4 (≈ 8.82 µM)	16 (≈ 35.3 µM)	16 (≈ 35.3 µM)					
COc1ccc2c(Cc3ccc(C(C)C)cc3)c3[n+](cc2c1OC(C)=O)CCc1cc2c(cc1-3)OCO2.[Cl-]	> 128	16	> 128	16	8	16	16					
CCCC(=O)Oc1c(OC)ccc2c(Cc3ccc(C(C)C)cc3)c3[n+](cc12)CCc1cc2c(cc1-3)OCO2.[Cl-]	> 128	8	> 128	8	4	8	8					
CCCOc1c(OC)ccc2c(Cc3ccc(C(C)C)cc3)c3[n+](cc12)CCc1cc2c(cc1-3)OCO2.[Cl-]	8	2	4	0.5	2	1	0.5					
CCCCOc1c(OC)ccc2c(Cc3ccc(C(C)C)cc3)c3[n+](cc12)CCc1cc2c(cc1-3)OCO2.[Cl-]	4	1	2	0.25	1	0.5	0.25	Non-toxic	Non-toxic	900	Non-toxic	Non-toxic
C=CCOc1c(OC)ccc2c(Cc3ccc(C(C)C)cc3)c3[n+](cc12)CCc1cc2c(cc1-3)OCO2.[Cl-]	8	2	8	1	2	1	1					
CCC(C)(C)Oc1c(OC)ccc2c(Cc3ccc(C(C)C)cc3)c3[n+](cc12)CCc1cc2c(cc1-3)OCO2.[Cl-]	16	4	32	1	4	2	1					
COc1ccc2c(Cc3ccc(C(C)C)cc3)c3[n+](cc2c1OCCCO)CCc1cc2c(cc1-3)OCO2.[Cl-]	8	2	8	1	2	2	1					
C[C@@H]1[C@H](O)[C@@H](C)/C=C/C=C/C=C/C=C/C=C/C=C/C=C/[C@H](O[C@@H]2O[C@H](C)[C@@H](O)[C@H](N)[C@@H]2O)C[C@@H]2O[C@](O)(C[C@@H](O)C[C@@H](O)[C@H](O)CC[C@@H](O)C[C@@H](O)CC(=O)O[C@H]1C)C[C@H](O)[C@H]2C(=O)O [AMPHOTERICIN B]	16 (≈ 17.3 µM)	0.5 (≈ 0.541 µM)	1 (≈ 1.08 µM)	1 (≈ 1.08 µM)	0.25 (≈ 0.271 µM)	0.5 (≈ 0.541 µM)	0.5 (≈ 0.541 µM)					
